# ChEMBL document CHEMBL1268867, “ATPases as drug targets: insights from heat shock proteins 70 and 90” (J Med Chem, 2010)
# Columns and labels:
# [1] = Binding affinity to Hsp70 nucleotide binding domain
# [2] = biological target: Heat shock cognate 71 kDa protein (Homo sapiens, UniProt P11142); test: Binding affinity to human Hsc70 by isothermal calorimetry assay
# [3] = biological target: Heat shock cognate 71 kDa protein (Bos taurus, UniProt P19120); test: Binding affinity to bovine Hsc70 by filter binding assay
# Sequence of Heat shock cognate 71 kDa protein (Bos taurus, UniProt P19120) (P19120 whole entry): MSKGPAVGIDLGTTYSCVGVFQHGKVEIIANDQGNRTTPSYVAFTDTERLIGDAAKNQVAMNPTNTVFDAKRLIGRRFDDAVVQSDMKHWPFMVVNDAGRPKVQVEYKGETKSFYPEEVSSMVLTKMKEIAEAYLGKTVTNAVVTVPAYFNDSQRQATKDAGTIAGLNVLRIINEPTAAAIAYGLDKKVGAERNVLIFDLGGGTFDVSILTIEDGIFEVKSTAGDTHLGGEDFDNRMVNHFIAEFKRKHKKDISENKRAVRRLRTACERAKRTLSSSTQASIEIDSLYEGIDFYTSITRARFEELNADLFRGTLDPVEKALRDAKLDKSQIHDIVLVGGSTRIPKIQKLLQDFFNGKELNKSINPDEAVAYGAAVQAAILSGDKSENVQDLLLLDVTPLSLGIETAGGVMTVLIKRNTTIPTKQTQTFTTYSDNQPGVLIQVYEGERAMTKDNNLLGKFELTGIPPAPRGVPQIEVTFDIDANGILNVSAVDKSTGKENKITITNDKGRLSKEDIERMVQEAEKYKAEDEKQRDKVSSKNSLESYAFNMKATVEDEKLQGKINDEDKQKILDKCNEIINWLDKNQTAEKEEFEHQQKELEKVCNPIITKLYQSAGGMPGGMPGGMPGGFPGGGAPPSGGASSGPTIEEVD
# Sequence of Heat shock cognate 71 kDa protein (Homo sapiens, UniProt P11142) (P11142 whole entry): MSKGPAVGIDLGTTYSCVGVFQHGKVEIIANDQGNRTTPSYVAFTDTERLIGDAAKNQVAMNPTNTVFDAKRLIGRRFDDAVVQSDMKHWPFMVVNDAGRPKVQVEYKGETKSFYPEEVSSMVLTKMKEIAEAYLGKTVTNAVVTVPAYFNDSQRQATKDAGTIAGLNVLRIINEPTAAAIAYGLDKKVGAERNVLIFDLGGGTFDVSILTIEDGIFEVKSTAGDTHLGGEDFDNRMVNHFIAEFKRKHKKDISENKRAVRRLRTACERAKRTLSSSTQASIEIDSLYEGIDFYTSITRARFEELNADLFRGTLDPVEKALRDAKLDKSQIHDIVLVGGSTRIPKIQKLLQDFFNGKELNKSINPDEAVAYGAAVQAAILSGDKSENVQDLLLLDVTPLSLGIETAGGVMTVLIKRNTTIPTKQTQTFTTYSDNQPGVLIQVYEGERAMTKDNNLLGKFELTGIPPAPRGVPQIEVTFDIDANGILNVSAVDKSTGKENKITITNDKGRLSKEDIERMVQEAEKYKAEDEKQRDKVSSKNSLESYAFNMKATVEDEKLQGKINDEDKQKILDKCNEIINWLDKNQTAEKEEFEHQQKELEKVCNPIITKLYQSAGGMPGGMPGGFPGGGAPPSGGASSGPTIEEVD
SMILES,Kd [1] [nM],Kd [2] [nM],Kd [3] [nM]
N#Cc1ccc(COC[C@H]2O[C@@H](n3c(NCc4ccc(Cl)c(Cl)c4)nc4c(N)ncnc43)[C@H](O)[C@@H]2O)cc1,300,–,–
Nc1ncnc2c1ncn2[C@@H]1O[C@H](COP(=O)(O)OP(=O)(O)O)[C@@H](O)[C@H]1O [ADENOSINE DIPHOSPHATE],–,260,110
